Results published in patent US20160040215A1, “Methods for Pathogen Detection and Enrichment from Materials and Compositions” (priority 2013, published 2016).
≈ marks a conversion by molar mass, not a printed value. Where two headings read alike, the source gives them in different places.

Key:
[1] = test system: viable cells of fecal suspension
[2] = test system: M. morganii and P. pennerii isolates; assay: microbe, parasite or virus in culture; type: cell-based
ethanol treated spores = assay: Germination of ethanol treated spores with germinants, CFU on plate media; conditions: 2 ug/ml; plated on Sweet B or M2GSC media, single donor, FIG. 9

CCO [Ethanol, ethanol]
reduction of the number of viable cells [1]: approximately 4 logs

C[C@@H](O)[C@H]1C(=O)N2C(C(=O)O)=C(SCCN=CN)C[C@H]12 [imipenem]
MIC [2]: 4 to 8 µg/mL
MIC ([2]; Morganella morganii): 2 to 4 µg/mL (≈ 6.68 to 13.4 µM)

lysozyme
effect of addition to the plates on CFU, in words (ethanol treated spores): small effect
